{"source": "patent US6080762A", "about": "“Pulmonary and nasal delivery of raloxifene” (priority 1999, dated 2000)", "key": {"[1]": {"settings": "cynomolgus monkey, in vivo", "procedure": "(§1) Six adult cynomolgus monkeys (three males and three females) were used for this study. Males weighed from 5.3 kg to 5.5 kg at the start of the live phase. Females weighed from 3.8 kg to 4.9 kg at the start of the live phase. Each animal was uniquely identified with a number tattooed on the inner thigh.\n(§2) The animals were housed individually in stainless steel cages. Rooms were thermostatically set to maintain a temperature of 72° F. and maintain an actual temperature within 8° F. from that set point. The environmental control system is designed to maintain a relative humidity of 20% and a maximum of 80%. Light was on a 12 hour cycle, with lights on between 0600 and 1800. […] On test days, the animals were given primate chow only after the completion of the inhalation exposures. Water was available ad libitum except during exposure times.\n(§3) Prior to beginning the live phase of the study, the monkeys were conditioned, over an approximately 3 month period, to be caught, handled, and placed in a restraint chair using the pole-and-collar method. Foods like peanuts, marshmallows, and a variety of dried and fresh fruits were used as training rewards. The time that the monkeys were left in the chair was increased gradually up to 8 hours. By the end of the training period, all the monkeys could be caught quickly, placed into the restraint chair easily, and would allow limb manipulation, including having blood drawn, while in the chair.\n(§4) Each monkey was studied once per week for 5 weeks. Target concentrations of raloxifene activity were 0, 3, 10, 0, and 30 mg/m^3 for Weeks 1 through 5 respectively. The activity was determined by correcting the amount of raloxifene collected by the potency of the lot used. Each exposure was for 8 hours, divided into 4 hour segments with 15 minutes in between. During the 15 minute period between the 4 hour exposures, the monkeys were offered juice to drink and apple pieces to eat. The conditioning period described above had used this method to keep the animals from becoming agitated due to hunger or thirst. A 15 minute break in the exposures was not expected to affect the blood levels of raloxifene.\n(§5) The monkeys were placed into the restraint prior to each exposure. Two sheets of latex (0.030 in. thick) were placed around the animal's necks to form a seal. A 7-L head dome was placed over the animal's heads as described in J. Appl. […] Airflow of 15 L/min was maintained through the head dome via a calibrated transvector on the exhaust port. The raloxifene was aerosolized using a Wright Dust Feed II. […] The aerosol then entered the head-dome for the monkey to breath.\n(§6) Each day, before the monkeys were exposed, the exposure system was set up and a gravimetric sample was taken to determine the raloxifene concentration. The monkey was then placed in the chair and the aerosol was generated using the same generator settings. After the exposure to the monkey, it was removed from the chair, the system re-assembled, and another gravimetric sample taken. The concentrations derived from the 2 gravimetric samples were averaged to obtain the raloxifene concentration for that exposure. Gravimetric concentrations were determined by collecting the aerosol directly from the head-dome onto a 25 mm Gelman type A/E glass fiber filter."}, "[2]": {"settings": "cynomolgus monkey, in vivo", "remark": "listed apart in the source"}, "[3]": {"assay": "Pharmacokinetics of inhaled (pulmonary/nasal) aerosolized raloxifene in cynomolgus monkeys (Working Example 1)", "procedure": "as §1, §2, §3, §4, §5, §6"}}, "data": [{"smiles": "O=C(c1ccc(OCCN2CCCCC2)cc1)c1c(-c2ccc(O)cc2)sc2cc(O)ccc12", "note": "[raloxifene]", "values": [{"measurement": "blood levels of raloxifene (level and duration)", "setting": "[1]", "result": "relatively higher blood levels of raloxifene which lasted for several hours"}, {"measurement": "initial levels of unmetabolized raloxifene absorbed into the blood", "setting": "[1]", "result": "higher, relative to oral delivery"}, {"measurement": "breathing frequency", "setting": "[2]", "result": "no significant changes"}, {"measurement": "tidal volume", "setting": "[2]", "result": "no significant changes"}, {"measurement": "Cmax (Mean Ralox.)", "setting": "[3]; 8 h inhalation, exposure conc. 3.3 mg Ralox./m^3 of air, plasma", "result": 7, "unit": "ng/mL"}, {"measurement": "Cmax (Mean Ralox.)", "setting": "[3]; 8 h inhalation, exposure conc. 9.7 mg Ralox./m^3 of air, plasma", "result": 17, "unit": "ng/mL"}, {"measurement": "Cmax (Mean Ralox.)", "setting": "[3]; 8 h inhalation, exposure conc. 26.9 mg Ralox./m^3 of air, plasma", "result": 47, "unit": "ng/mL"}, {"measurement": "AUC ratio of raloxifene/total raloxifene", "setting": "[3]; inhalation, 10 mg/m^3 dose group", "result": 0.56}, {"measurement": "AUC ratio of raloxifene/total raloxifene", "setting": "[3]; inhalation, 30 mg/m^3 dose group", "result": 0.82}, {"measurement": "sex differences in raloxifene, total raloxifene, Cmax, or AUC values", "setting": "[3]; inhalation, males and females", "result": "No appreciable sex differences"}, {"measurement": "blood levels by pulmonary/nasal delivery relative to oral administration", "setting": "[3]; oral administration at an equivalent dose as comparison", "result": "considerably higher than those obtained following oral administration"}, {"measurement": "bioavailability", "setting": "[3]; pulmonary/nasal delivery", "result": "unexpected high level of bioavailability"}, {"measurement": "Cmax (Mean Tot. Ralox.)", "setting": "[3]; total raloxifene, 8 h inhalation, exposure conc. 26.9 mg Ralox./m^3 of air, plasma", "result": 84, "unit": "ng/mL"}]}]}
